Test results taken from US7888285B2, “2,4,6-phenyl substituted cyclic ketoenols” (Bayer CropScience AG, priority 2003, dated 2011).

Tests used:
Type in all cases: in vivo
Spring barley = test: Post-emergence crop plant tolerance, greenhouse experiments with safener pretreatment (mefenpyr)
Method: (§1) Post-Emergence Crop Plant Tolerance
(§2) Seeds of monocotyledonous and dicotyledonous weed and crop plants are placed in sandy loam in wood fibre pots or in plastic pots, covered with soil and grown in the greenhouse or, during the vegetation period, in the open outside the greenhouse, under good growth conditions. 2 to 3 weeks after sowing, the test plants are treated in the one- to three-leaf stage. The test compounds, which are formulated as wettable powder (WP) or as a fluid (EC), are sprayed onto the plants and the soil surface at various dosage rates with a water application rate of 300 l/ha (converted), with added wetter (0.2 to 0.3%). 3 to 4 weeks after the treatment of the test plants, the effect of the preparations is scored visually in comparison with untreated controls (herbicidal activity in per cent (%): 100% activity=plants have died, 0% activity=like control plants).
(§3) If it is additionally desired to test whether safeners are capable of improving the plant tolerance of test substances with regard to the crop plants, the following options for applying the safeners are used: • Prior to application of the test substances, the crop plants are sprayed with safener at a particular application rate per hectare (usually 1 day prior to application of the test substances). • The safener is applied together with the test substance in the form of a tank mix (the amount of safener being indicated in g/ha or as a safener:herbicide ratio).
(§4) The activity of the safener substance can be assessed in comparison with untreated control plants by comparing the effect of test substances on crop plants which have been treated without and with safener.
(§5) Results of Greenhouse Experiments With Safener/Pretreatment (Safener Mefenpyr (100 g a.i./ha), One Day Prior to Post-Emergence Treatment With the Herbicide)

cereals = test: Container experiments with cereals outside the greenhouse, herbicide:mefenpyr 1:2 tank mix; settings: 50 g a.i./ha, no safener
Method: as §2, §3, §4
Container Experiments with Cereals Outside the Greenhouse Herbicide: mefenpyr 1:2 tank mix

Spring wheat = test: Post-emergence crop plant tolerance, greenhouse experiments with safener pretreatment (mefenpyr); settings: 25 g a.i./ha herbicide, no safener
Method: as §1, §2, §3, §4, §5

Echinochloa [1] = test: Pre-emergence test; settings: greenhouse, 250 g a.i./ha, scored after three weeks
Method: (§6) [table] To prepare a suitable active compound preparation, 1 part by weight of active compound is mixed with the stated amount of solvent, the stated amount of emulsifier is added, and the concentrate is diluted with water to the desired concentration. Seeds of the test plant are sown in normal soil. After approximately 24 hours, the soil is sprayed with the active compound preparation in such a way that the amounts of active compound desired in each case are applied per unit area. The concentration of the spray mixture is chosen in such a way that the amounts of active compound desired in each case are applied in 1 000 1 of water/ha. After three weeks, the degree of damage of the plants is scored in % damage in comparison with the development of the untreated control.

Alopecurus [2] = test: Pre-emergence test; settings: greenhouse, 250 g a.i./ha, scored after three weeks
Method: as §6

Sinapis = test: Pre-emergence test; settings: greenhouse, 250 g a.i./ha, scored after three weeks
Method: as §6

Avena fatua [3] = test: Pre-emergence test; settings: greenhouse, 250 g a.i./ha, scored after three weeks
Method: as §6

Setaria [4] = test: Pre-emergence test; settings: greenhouse, 250 g a.i./ha, scored after three weeks
Method: as §6

Echinochloa [5] = test: Post-emergence test; settings: greenhouse, 250 g a.i./ha, scored after three weeks
Method: (§7) To prepare a suitable active compound preparation, 1 part by weight of active compound is mixed with the stated amount of solvent, the stated amount of emulsifier is added, and the concentrate is diluted with water to the desired concentration.
(§8) Test plants with a height of 5-15 cm are sprayed with the active compound preparation in such a way that the amounts of active compound desired in each case are applied per unit area. The concentration of the spray mixture is chosen in such a way that the amounts of active compound desired in each case are applied in 1 000 1 of water/ha.
(§9) After three weeks, the degree of damage of the plants is scored in % damage in comparison with the development of the untreated control.
(§10) The figures denote: • 0% =no effect (like untreated control) • 100% =total destruction

Alopecurus [6] = test: Post-emergence test; settings: greenhouse, 250 g a.i./ha, scored after three weeks
Method: as §7, §8, §9, §10

sugar beet = test: Post-emergence test; settings: greenhouse, 250 g a.i./ha, scored after three weeks
Method: as §7, §8, §9, §10

Avena fatua [7] = test: Post-emergence test; settings: greenhouse, 250 g a.i./ha, scored after three weeks
Method: as §7, §8, §9, §10

Setaria [8] = test: Post-emergence test; settings: greenhouse, 250 g a.i./ha, scored after three weeks
Method: as §7, §8, §9, §10

[9] = test system: larvae of the mustard beetle (Phaedon cochleariae); test: Phaedon larvae test; settings: 1000 ppm
Method: [table] To produce a suitable preparation of active compound, 1 part by weight of active compound is mixed with the stated amounts of solvent and emulsifier, and the concentrate is diluted with emulsifier-containing water to the desired concentration. Cabbage leaves (Brassica oleracea) are treated by being dipped into the preparation of active compound of the desired concentration and are infested with the larvae of the mustard beetle (Phaedon cochleariae) while the leaves are still moist.

Meloidogyne incognita = test: Meloidogyne test; settings: 20 ppm, with reference to gall formation
Method: To prepare a suitable active compound preparation, 1 part by weight of active compound is mixed with the stated amounts of solvent and emulsifier and the concentrate is diluted with water to the desired concentration.
Containers are filled with sand, active compound solution, Meloidogyne incognita egg/larval suspension and lettuce seeds. The lettuce seeds germinate and the plantlets develop. The galls develop on the roots.
After the desired time, the nematicidal efficacy is determined I n % with reference to gall formation. 100% means that no galls were found; 0% means that the number of galls on the treated plants corresponds to that of the untreated control.

[10] = 25 g a.i./ha herbicide, no safener
[11] = 50 g a.i./ha herbicide, no safener
[12] = 100 g a.i./ha herbicide, no safener

CCc1cc(Cl)cc(OC)c1C1=C(O)C2(CCC(OC)CC2)OC1=O (mixture of isomers) [Example I-2-a-2] was tested, and the “Spring barley observed (%)” value (Spring barley; [10]) was 60%, the “Spring barley observed (%)” value (Spring barley; [11]) was 60% and the “Spring barley observed (%)” value (Spring barley; [12]) was 97%. For the same compound, the “Spring barley observed (%)” value (cereals) was 20% and the “Spring wheat observed (%)” value (cereals) was 95%.
With CCc1cc(Cl)cc(OC)c1C1=C(OC(=O)C(C)(C)CC)C2(CCC(OC)CC2)OC1=O (mixture of isomers) [Example I-2-b-4] the “Spring barley observed (%)” value (Spring barley; [12]) was 80% and the “Spring wheat observed (%)” value (Spring wheat) was 100%.
With CCc1cc(Cl)cc(OC)c1C1=C(OC(=O)C(C)C)C2(CCC(OC)CC2)OC1=O (mixture of isomers) [Example I-2-b-5] the “Spring barley observed (%)” value (Spring barley; [10]) was 50%, the “Spring barley observed (%)” value (Spring barley; [11]) was 97% and the “Spring barley observed (%)” value (Spring barley; [12]) was 100%. For the same compound, the “Spring wheat observed (%)” value (Spring wheat) was 99%.
In the case of CCc1cc(Cl)cc(OC)c1C1=C(OC(=O)C(C)(C)C)C2(CCC(OC)CC2)OC1=O (mixture of isomers) [Example I-2-b-6], the “Spring barley observed (%)” value (Spring barley; [10]) is reported as 50%, the “Spring barley observed (%)” value (Spring barley; [11]) is reported as 97% and the “Spring barley observed (%)” value (Spring barley; [12]) is reported as 98%. The “Spring barley observed (%)” value (cereals) was 40% and the “Spring wheat observed (%)” value (cereals) was 100%.
With CCOC(=O)OC1=C(c2c(CC)cc(Cl)cc2OC)C(=O)N(CC)C1C (racemic) [Example I-1-c-7] the “Spring barley observed (%)” value (Spring barley; application rate 13 g a.i./ha, without safener) was 15%, the “Spring barley observed (%)” value (Spring barley; application rate 25 g a.i./ha, without safener) was 30% and the “Spring barley observed (%)” value (Spring barley; application rate 50 g a.i./ha, without safener) was 85%.
CCc1cc(Cl)cc(OC)c1C1=C(O)C2(CCC(C)CC2)NC1=O (single isomer, unassigned) [Example I-1-a-4] was tested, and the “degree of damage, Echinochloa” value (Echinochloa [1]) was 100%, the “degree of damage, Alopecurus” value (Alopecurus [2]) was 90% and the “degree of damage, Sinapis” value (Sinapis) was 90%. For the same compound, the “degree of damage, Avena fatua” value (Avena fatua [3]) was 100%, the “degree of damage, Setaria” value (Setaria [4]) was 100% and the “degree of damage, Echinochloa” value (Echinochloa [5]) was 100%. The “degree of damage, Alopecurus” value (Alopecurus [6]) was 100%, the “degree of damage, sugar beet” value (sugar beet) was 0% and the “degree of damage, Avena fatua” value (Avena fatua [7]) was 100%. For the same compound, the “degree of damage, Setaria” value (Setaria [8]) was 100%, the “Destruction in % after 7 d” value [9] was 100% and the “Destruction in % after 14 d” value (Meloidogyne incognita) was 98%.
